Test results from ChEMBL document CHEMBL4251615, “Discovery of anilino-furo[2,3-d]pyrimidine derivatives as dual inhibitors of EGFR/HER2 tyrosine kinase and their anticancer activity” (Eur J Med Chem, 2018).

Test system: NCI-H522
Test: Growth inhibition of human NCI-H522 cells assessed as cell growth at 10 uM incubated for 48 hrs by sulforhodamine B assay relative to control
Format: functional
Conditions: NCI-H522, 48 h, read-out: Activity

Q: Which growth at 10 µM does the source give for `Cc1oc2ncnc(Nc3ccc(OCc4cccc(F)c4)c(Cl)c3)c2c1C(=O)NCCO` here?
A: 27.9%

Test system: 786-0
Test: Growth inhibition of human 786-0 cells assessed as cell growth at 10 uM incubated for 48 hrs by sulforhodamine B assay relative to control
Format: functional
Conditions: 786-0, 48 h, read-out: Activity

Q: How did the growth at 10 µM turn out when `Cc1oc2ncnc(Nc3ccc(OCc4cccc(F)c4)c(Cl)c3)c2c1C(=O)NCCO` was run?
A: 61.2%

Test system: HT-29
Test: Growth inhibition of human HT-29 cells assessed as cell growth at 10 uM incubated for 48 hrs by sulforhodamine B assay relative to control
Format: functional
Conditions: HT-29, 48 h, read-out: Activity

Q: Which growth at 10 µM does the source give for `Cc1oc2ncnc(Nc3ccc(OCc4cccc(F)c4)c(Cl)c3)c2c1C(=O)NCCO` here?
A: 73%

Test system: BT-549
Test: Growth inhibition of human BT549 cells assessed as cell growth at 10 uM incubated for 48 hrs by sulforhodamine B assay relative to control
Format: functional
Conditions: BT-549, 48 h, read-out: Activity

Q: Which growth at 10 µM does the source give for `Cc1oc2ncnc(Nc3ccc(OCc4cccc(F)c4)c(Cl)c3)c2c1C(=O)NCCO` here?
A: 61.7%

Test system: OVCAR-4
Test: Growth inhibition of human OVCAR4 cells assessed as cell growth at 10 uM incubated for 48 hrs by sulforhodamine B assay relative to control
Format: functional
Conditions: OVCAR-4, 48 h, read-out: Activity

Q: For `Cc1oc2ncnc(Nc3ccc(OCc4cccc(F)c4)c(Cl)c3)c2c1C(=O)NCCO`, which growth at 10 µM is on record?
A: 66.9%

Test system: SK-MEL-2
Test: Growth inhibition of human SK-MEL-2 cells assessed as cell growth at 10 uM incubated for 48 hrs by sulforhodamine B assay relative to control
Format: functional
Conditions: SK-MEL-2, 48 h, read-out: Activity

Q: `Cc1oc2ncnc(Nc3ccc(OCc4cccc(F)c4)c(Cl)c3)c2c1C(=O)NCCO` was tested. Which growth at 10 µM did it give?
A: 78.5%

Test system: TK-10
Test: Growth inhibition of human TK10 cells assessed as cell growth at 10 uM incubated for 48 hrs by sulforhodamine B assay relative to control
Format: functional
Conditions: TK-10, 48 h, read-out: Activity

Q: With `Cc1oc2ncnc(Nc3ccc(OCc4cccc(F)c4)c(Cl)c3)c2c1C(=O)NCCO` as the molecule, how does the growth at 10 µM read?
A: 74.7%

Test system: SF-268
Test: Growth inhibition of human SF268 cells assessed as cell growth at 10 uM incubated for 48 hrs by sulforhodamine B assay relative to control
Format: functional
Conditions: SF-268, 48 h, read-out: Activity

Q: `Cc1oc2ncnc(Nc3ccc(OCc4cccc(F)c4)c(Cl)c3)c2c1C(=O)NCCO` was tested. Which growth at 10 µM did it give?
A: 47.2%

Test system: A549
Test: Growth inhibition of human A549/ATCC cells assessed as cell growth at 10 uM incubated for 48 hrs by sulforhodamine B assay relative to control
Format: functional
Conditions: A549, 48 h, read-out: Activity

Q: `Cc1oc2ncnc(Nc3ccc(OCc4cccc(F)c4)c(Cl)c3)c2c1C(=O)NCCO` was tested. Which growth at 10 µM did it give?
A: 53.5%

Test system: NCI-H23
Test: Growth inhibition of human NCI-H23 cells assessed as cell growth at 10 uM incubated for 48 hrs by sulforhodamine B assay relative to control
Format: functional
Conditions: NCI-H23, 48 h, read-out: Activity

Q: `Cc1oc2ncnc(Nc3ccc(OCc4cccc(F)c4)c(Cl)c3)c2c1C(=O)NCCO` was tested. Which growth at 10 µM did it give?
A: 58.6%

Test system: MDA-MB-468
Test: Growth inhibition of human MDA-MB-468 cells assessed as cell growth at 10 uM incubated for 48 hrs by sulforhodamine B assay relative to control
Format: functional
Conditions: MDA-MB-468, 48 h, read-out: Activity

Q: How did the growth at 10 µM turn out when `Cc1oc2ncnc(Nc3ccc(OCc4cccc(F)c4)c(Cl)c3)c2c1C(=O)NCCO` was run?
A: 57.4%

Test system: MDA-MB-435
Test: Growth inhibition of human MDA-MB-435 cells assessed as cell growth at 10 uM incubated for 48 hrs by sulforhodamine B assay relative to control
Format: functional
Conditions: MDA-MB-435, 48 h, read-out: Activity

Q: With `Cc1oc2ncnc(Nc3ccc(OCc4cccc(F)c4)c(Cl)c3)c2c1C(=O)NCCO` as the molecule, how does the growth at 10 µM read?
A: 62.6%

Test system: OVCAR-3
Test: Growth inhibition of human OVCAR3 cells assessed as cell growth at 10 uM incubated for 48 hrs by sulforhodamine B assay relative to control
Format: functional
Conditions: OVCAR-3, 48 h, read-out: Activity

Q: For `Cc1oc2ncnc(Nc3ccc(OCc4cccc(F)c4)c(Cl)c3)c2c1C(=O)NCCO`, which growth at 10 µM is on record?
A: 78.1%

Test system: RXF 393
Test: Growth inhibition of human RXF393 cells assessed as cell growth at 10 uM incubated for 48 hrs by sulforhodamine B assay relative to control
Format: functional
Conditions: RXF 393, 48 h, read-out: Activity

Q: For `Cc1oc2ncnc(Nc3ccc(OCc4cccc(F)c4)c(Cl)c3)c2c1C(=O)NCCO`, which growth at 10 µM is on record?
A: 60%

Test system: SW-620
Test: Growth inhibition of human SW620 cells assessed as cell growth at 10 uM incubated for 48 hrs by sulforhodamine B assay relative to control
Format: functional
Conditions: SW-620, 48 h, read-out: Activity

Q: For `Cc1oc2ncnc(Nc3ccc(OCc4cccc(F)c4)c(Cl)c3)c2c1C(=O)NCCO`, which growth at 10 µM is on record?
A: 93.4%

Test system: Hs-578T
Test: Growth inhibition of human Hs 578T cells assessed as cell growth at 10 uM incubated for 48 hrs by sulforhodamine B assay relative to control
Format: functional
Conditions: read-out: Activity

Q: `Cc1oc2ncnc(Nc3ccc(OCc4cccc(F)c4)c(Cl)c3)c2c1C(=O)NCCO` was tested. Which growth at 10 µM did it give?
A: 46.1%

Test system: HOP-92
Test: Growth inhibition of human HOP92 cells assessed as cell growth at 10 uM incubated for 48 hrs by sulforhodamine B assay relative to control
Format: functional
Conditions: HOP-92, 48 h, read-out: Activity

Q: How did the growth at 10 µM turn out when `Cc1oc2ncnc(Nc3ccc(OCc4cccc(F)c4)c(Cl)c3)c2c1C(=O)NCCO` was run?
A: 41.9%

Test system: ACHN
Test: Growth inhibition of human ACHN cells assessed as cell growth at 10 uM incubated for 48 hrs by sulforhodamine B assay relative to control
Format: functional
Conditions: read-out: Activity

Q: Which growth at 10 µM does the source give for `Cc1oc2ncnc(Nc3ccc(OCc4cccc(F)c4)c(Cl)c3)c2c1C(=O)NCCO` here?
A: 49.7%

Test system: EKVX
Test: Growth inhibition of human EKVX cells assessed as cell growth at 10 uM incubated for 48 hrs by sulforhodamine B assay relative to control
Format: functional
Conditions: read-out: Activity

Q: `Cc1oc2ncnc(Nc3ccc(OCc4cccc(F)c4)c(Cl)c3)c2c1C(=O)NCCO` was tested. Which growth at 10 µM did it give?
A: 47.8%

Test system: Malme-3M
Test: Growth inhibition of human MALME-3M cells assessed as cell growth at 10 uM incubated for 48 hrs by sulforhodamine B assay relative to control
Format: functional
Conditions: read-out: Activity

Q: For `Cc1oc2ncnc(Nc3ccc(OCc4cccc(F)c4)c(Cl)c3)c2c1C(=O)NCCO`, which growth at 10 µM is on record?
A: 52.3%

Test system: NCI-H322M
Test: Growth inhibition of human NCI-H322M cells assessed as cell growth at 10 uM incubated for 48 hrs by sulforhodamine B assay relative to control
Format: functional
Conditions: read-out: Activity

Q: How did the growth at 10 µM turn out when `Cc1oc2ncnc(Nc3ccc(OCc4cccc(F)c4)c(Cl)c3)c2c1C(=O)NCCO` was run?
A: 86.3%

Test system: SNB-19
Test: Growth inhibition of human SNB19 cells assessed as cell growth at 10 uM incubated for 48 hrs by sulforhodamine B assay relative to control
Format: functional
Conditions: SNB-19, 48 h, read-out: Activity

Q: With `Cc1oc2ncnc(Nc3ccc(OCc4cccc(F)c4)c(Cl)c3)c2c1C(=O)NCCO` as the molecule, how does the growth at 10 µM read?
A: 34.3%

Test system: U-251
Test: Growth inhibition of human U251 cells assessed as cell growth at 10 uM incubated for 48 hrs by sulforhodamine B assay relative to control
Format: functional
Conditions: U-251, 48 h, read-out: Activity

Q: How did the growth at 10 µM turn out when `Cc1oc2ncnc(Nc3ccc(OCc4cccc(F)c4)c(Cl)c3)c2c1C(=O)NCCO` was run?
A: 48.1%

Test system: SF-295
Test: Growth inhibition of human SF295 cells assessed as cell growth at 10 uM incubated for 48 hrs by sulforhodamine B assay relative to control
Format: functional
Conditions: SF-295, 48 h, read-out: Activity

Q: With `Cc1oc2ncnc(Nc3ccc(OCc4cccc(F)c4)c(Cl)c3)c2c1C(=O)NCCO` as the molecule, how does the growth at 10 µM read?
A: 49.5%

Test system: PC-3
Test: Growth inhibition of human PC3 cells assessed as cell growth at 10 uM incubated for 48 hrs by sulforhodamine B assay relative to control
Format: functional
Conditions: PC-3, 48 h, read-out: Activity

Q: `Cc1oc2ncnc(Nc3ccc(OCc4cccc(F)c4)c(Cl)c3)c2c1C(=O)NCCO` was tested. Which growth at 10 µM did it give?
A: 57.5%

Test system: HCC 2998
Test: Growth inhibition of human HCC2998 cells assessed as cell growth at 10 uM incubated for 48 hrs by sulforhodamine B assay relative to control
Format: functional
Conditions: HCC 2998, 48 h, read-out: Activity

Q: For `Cc1oc2ncnc(Nc3ccc(OCc4cccc(F)c4)c(Cl)c3)c2c1C(=O)NCCO`, which growth at 10 µM is on record?
A: 79.1%

Test system: HCT-116
Test: Growth inhibition of human HCT116 cells assessed as cell growth at 10 uM incubated for 48 hrs by sulforhodamine B assay relative to control
Format: functional
Conditions: HCT-116, 48 h, read-out: Activity

Q: Which growth at 10 µM does the source give for `Cc1oc2ncnc(Nc3ccc(OCc4cccc(F)c4)c(Cl)c3)c2c1C(=O)NCCO` here?
A: 64.9%

Test system: RPMI-8226
Test: Growth inhibition of human RPMI8226 cells assessed as cell growth at 10 uM incubated for 48 hrs by sulforhodamine B assay relative to control
Format: functional
Conditions: RPMI-8226, 48 h, read-out: Activity

Q: Which growth at 10 µM does the source give for `Cc1oc2ncnc(Nc3ccc(OCc4cccc(F)c4)c(Cl)c3)c2c1C(=O)NCCO` here?
A: 70.2%

Test system: MCF7
Test: Growth inhibition of human MCF7 cells assessed as cell growth at 10 uM incubated for 48 hrs by sulforhodamine B assay relative to control
Format: functional
Conditions: MCF7, 48 h, read-out: Activity

Q: Which growth at 10 µM does the source give for `Cc1oc2ncnc(Nc3ccc(OCc4cccc(F)c4)c(Cl)c3)c2c1C(=O)NCCO` here?
A: 62.9%

Test system: MDA-MB-231
Test: Growth inhibition of human MDA-MB-231 cells assessed as cell growth at 10 uM incubated for 48 hrs by sulforhodamine B assay relative to control
Format: functional
Conditions: MDA-MB-231, 48 h, read-out: Activity

Q: How did the growth at 10 µM turn out when `Cc1oc2ncnc(Nc3ccc(OCc4cccc(F)c4)c(Cl)c3)c2c1C(=O)NCCO` was run?
A: 26%

Test system: HL-60(TB)
Test: Growth inhibition of human HL-60(TB) cells assessed as cell growth at 10 uM incubated for 48 hrs by sulforhodamine B assay relative to control
Format: functional
Conditions: HL-60, 48 h, read-out: Activity

Q: For `Cc1oc2ncnc(Nc3ccc(OCc4cccc(F)c4)c(Cl)c3)c2c1C(=O)NCCO`, which growth at 10 µM is on record?
A: 42.4%

Test system: SN12C
Test: Growth inhibition of human SN12C cells assessed as cell growth at 10 uM incubated for 48 hrs by sulforhodamine B assay relative to control
Format: functional
Conditions: read-out: Activity

Q: For `Cc1oc2ncnc(Nc3ccc(OCc4cccc(F)c4)c(Cl)c3)c2c1C(=O)NCCO`, which growth at 10 µM is on record?
A: 45.3%

Test system: MOLT-4
Test: Growth inhibition of human MOLT4 cells assessed as cell growth at 10 uM incubated for 48 hrs by sulforhodamine B assay relative to control
Format: functional
Conditions: MOLT-4, 48 h, read-out: Activity

Q: How did the growth at 10 µM turn out when `Cc1oc2ncnc(Nc3ccc(OCc4cccc(F)c4)c(Cl)c3)c2c1C(=O)NCCO` was run?
A: 68.5%
